Laboratory results reported in patent publication US20040037780A1, “Respiratory delivery for gene therapy and lentiviral delivery particle” (priority 2001, published 2004).

Experiments:
nasal airway epithelium [1] = test: Adenoviral (AdlLacZ) LacZ gene transfer into mouse nasal airway after detergent pre-treatment; assay type: in vivo, mice; conditions: 4 μl detergent (SDS 0.25%, ZWIT 0.14%, DEOXY 0.17%) 1 h before AdlLacZ 1×10^9 pfu; 3 days; FIG. 7
Description: The detergents tested were Sodium n-dodecyl sulfate (SDS), (an anionic detergent) at 0.25%, Zwittergent 3-14: N-Tetradecylsulfobetaine (ZWIT) (a zwitterionic detergent) at 0.14%, Cetyltrimethylammonium bromide (CTAB) (an ionic detergent) at 0.15%, Deoxycholic Acid (DEOXY) (an ionic detergent) at 0.17%, with phosphate buffered saline as a control.
Detergents were made up fresh to nominated concentrations. A single 4 μl dose was used per mouse (all were approximately 20 gm body weight). An Adenoviral vector (AdlLacZ) dose of 1×10^9 pfu in 20 μl. Mice were anaesthetised with Xylamine/Ketamine i.m.; then suspended vertically (hanging on dorsal incisor teeth). The detergent dose was instilled into the nostril opening in one bolus via a micropipettor.
The mouse was set aside for one hour; re-anaesthetised as needed, 1 hour later 20 μl of viral vector was instilled into the same nostril. The mouse was allowed to recover and returned to caging. Three days later the mice were killed with CO2 excess, head removed and the nasal airways were flushed with fixative. These were taken through standard “X-gal” processing to reveal blue stained cells that represent LacZ gene transfer. Cells were processing to wax sections and stained with Safranin-O or haemotoxylin/oesin. Stained cells present along the perimeter of 3 standard cross-sections in the treated nasal airway were counted. […]

nasal airway epithelium [2] = test: Histological injury after dosing with LPC alone; assay type: in vivo, mouse; conditions: 1% LPC alone
nasal airway epithelium [3] = test: LV-mediated LacZ gene transfer into mouse nasal airway (X-gal, count of LacZ positive cells); assay type: in vivo, C57B1/6 mice; conditions: for LacZ positive cells ± SEM: 3 standard cross-sections, n=3
[4] = tested on: freshly-excised mouse nasal airway epithelium; conditions: unpublished data
[5] = tested on: nasal airway surface epithelium; test: Transepithelial potential difference (TPD) after penetrating agent, damage of epithelia; assay type: in vivo, mice; conditions: for recovery of TDP function: longer time course, FIG. 11
Source text: The method of choice for assessing an appropriate level of damage is by the measurement of transepithelial potential difference (TDP) (Middleton et al., 1994; Knowles et al., 1995; Lee et al., 1999). In general, damage to epithelium with penetrating agents cause at least opening of the tight junctions and this causes the resident negative TPD on the airway surface to go toward zero. If there is exfoliation (that is substantial damage) then the TPD goes to zero quickly and takes several days to return to normal because the epithelia cells have been stripped off and have to regenerate.
Measurement of TPD was performed under zero-chloride perfusion to give a larger baseline TPD value from which to measure change. Under these conditions the values are typically around −20 mV compared to about −5 mV if normal perfusion saline is used. Mice are anaesthetised, TPD cannula is inserted, then the detergent dose is instilled in the same nostril, the effect is then followed in this anterior part of the nose. The methods used for measuring TDP are largely as described in Parsons et al., 1998. For method for use in human see Middleton et al., 1994 and Knowles et al., 1995.
The dosage of detergent used is 4 μl of PBS, PDOC of LPC and is in line with methods used in the above examples. The solutions of detergent use are 0.01, 0.1 and 1.0%. The TDP value was determined 5 minutes after administration of the detergent. The values are presented graphically in FIG. 8. […] A score of 100% represents the pretest TDP value. […] A TDP value of less than about 60% is though to be preferable.
The same doses of LPC were used as for experiment 1 but TDP was measured at 2, 5 and 10 minutes after administration. The data are presented graphically in FIG. 9. […] Thus should 0.01% LPC be used for treatment of the lung then lentivirus should be delivered within 10 minutes.
This uses that same doses of PDOC as in experiment 1 and as in experiment 2 TDP was measured at 2, 5 and 10 minutes after administration. The data from this experiment are presented graphically in FIG. 10.
TDP was measured over a longer time course using PDOC as the penetrating agent. The doses used in this experiment were (per mouse) 10 μl of 1.0% PDOC, 4 μl of 1.0% PDOC and 4 μl of 0.1% PDOC. […] A recovery of TDP function within about 1 day is considered to be transient.

[6] = tested on: CFTR-mediated chloride secretion; test: Nasal TPD/ΔPD measurement of CFTR function after LVCFTR dosing; assay type: in vivo; conditions: homozygote cftr^tmlUnc mice, 1% LPC 1 h prior to PBS (control) instillation; 7 days later
Description: C57B1/6 and cftr^tmlUnc mice (Snouwaert et al., 1992) were used under the approval of both the Women's and Children's Hospital and the University of Adelaide Animal Ethics Committees. C57B1/6 mice (6-7 weeks of age), or cftr^tmlUnc mice (8-20 weeks of age) were anaesthetised intramuscularly with 1 μl/g and 0.7 μl/g body weight respectively of a 3:2 mixture of xylazil (20 mg/ml):ketamine (100 mg/ml) respectively. Body temperature was maintained during anaesthesia with a heat pad, or heat lamp and during the recovery period the mice were placed in a 35° C. air chamber. For dosing, mice were suspended from their dorsal incisors (hindquarters supported) and pre-treatment solutions (4 μl of LPC (Sigma L-4129), or polidocanol (Sigma P-9641), prepared as w/v solutions in PBS) delivered as a bolus into the right nostril using a gel-loading tip (Finnpippette). […] The mice were monitored for respiratory distress and any loss of treatment solution was noted. […]
CFTR gene expression: Mice were anaesthetised, suspended from their dorsal incisors (hindquarters supported) and a subcutaneous needle-agar bridge (as reference electrode) was placed in the abdomen. […] TPD values were measured (blinded) from chart paper recordings, and the ΔPD value was calculated by subtracting the TPD value recorded under basal conditions from the TPD value measured under low-chloride conditions. […]

MDCK = test: Effect of detergent on viral gene transfer in vitro, polarised cells; assay type: cell-based; conditions: AdV5CMVLacZ vector added 10, 30 and 60 mins following polidocanol treatment, P<0.05
Description: (§1) The effect of detergents (polidocanol and lysophospatidylcholine) on the level of viral gene transfer were firstly evaluated in vitro.
(§2) Initial experiments made use of the AdV5CMVLacZ vector (a generous gift from Dr. R. C. Boucher). […] This dose of polidocanol was assessed on polarised cells (MDCK) and also non-polarised cells (A549). The AdV vector was added at 10, 30 and 60 mins following treatment. […] When the experiments were repeated using the LV vector we found the same effect.

A549 = test: Effect of detergent on viral gene transfer in vitro, non-polarised cells; assay type: cell-based; conditions: AdV5CMVLacZ vector added 10, 30 and 60 mins following polidocanol treatment
Description: as §1, §2

[7] = 0.1% pre-treatment (4 μl) 1 h before 20 μl LVLacZa (6×10^4 NIH3T3-TU), 7 days
[8] = 1% pre-treatment (4 μl), then PBS instead of vector, 7 days

## CCCCCCCCCCCCOS(=O)(=O)[O-].[Na+] [SDS, Sodium n-dodecyl sulfate]
Nasal airway epithelium [1]
  numbers of transductants over the control PBS, respiratory cells: considerable increase in numbers of transductants

## CCCCCCCCCCCCCC[N+](C)(C)CCCS(=O)(=O)[O-] [Zwit, N-Tetradecylsulfobetaine]
Nasal airway epithelium [1]
  numbers of transductants over the control PBS, respiratory cells: considerable increase in numbers of transductants

## lysophosphatidylcholine [LPC]
Nasal airway epithelium [2]
  histological injury observed immediately after dosing: limited areas of deciliation or exfoliation found anteriorly close the dosed site
Nasal airway epithelium [3]; [7]
  LacZ positive cells ± SEM: 4.3 ± 0.7
Nasal airway epithelium [3]; 1% LPC pre-treatment, LVLacZa, 7 days
  increase in the level of LV-mediated transduction compared to pre-treatment with 1% polidocanol: 4 fold
Nasal airway epithelium [3]; [8]
  LacZ positive cells ± SEM: 0.0 ± 0.0
[4]
  effect on cilial beat: dose-dependant reversibility of reduction in cilial beat
[5]; 4 μl of 0.01% LPC, after 10 minutes, FIG. 9
  TPD relative to pretest TPD: not significantly different to pretest TPD
[6]
  ΔPD: +8±3.2 mV

## polybrene
Nasal airway epithelium [3]; 1% LPC pre-treatment, LVLacZa vector preparation containing 4 μg/ml polybrene, 7 days
  number of LacZ positive cells: 5.0±1.0
Nasal airway epithelium [3]; 1% LPC pre-treatment, vs polybrene-free LVLacZa, P=0.002
  decrease in the number of LacZ positive cells on inclusion of polybrene in the LVLacZa preparation: 4 fold

## polyoxyethylene 9-lauryl ether [PDOC]
Nasal airway epithelium [3]; [7]
  LacZ positive cells ± SEM: 2.7 ± 0.3
Nasal airway epithelium [3]; 1% pre-treatment (4 μl) 1 h before 20 μl LVLacZa (6×10^4 NIH3T3-TU), polybrene-free, 7 days
  LacZ positive cells ± SEM: 5.3 ± 1.3
Nasal airway epithelium [3]; [8]
  LacZ positive cells ± SEM: 0.0 ± 0.0
MDCK
  gene transfer when vector added one hour after treatment compared to shorter time points: significantly improved
A549
  level of gene transfer between vector instillation times: no apparent difference
[5]; 4 μl of 0.01, 0.1 and 1.0% solutions, 5 minutes after administration, FIG. 8
  effect on TDP value: greater effect on TDP value than LPC
[5]; 4 μl of 0.1% PDOC
  recovery of TDP function: rapidly recovers
[5]; 10 μl of 1.0% PDOC and 4 μl of 1.0% PDOC (first two doses)
  recovery of TDP function: extended
